Test results reported in US20240016734A1 (Aquestive Therapeutics, Inc., priority 2022, published 2024).
Marks after values point to notes of the source that are not given here. Blank lines part the entries; values can stand above or below the compound they belong to.

Key:
[1] = Ex vivo permeation of epinephrine, Franz diffusion cell
Procedure: A franz diffusion cell is obtained and prepared.
If testing films, one can perform the following next steps: (1) weigh films, punch to match diffusion area (or smaller), reweigh, record pre- and post-punching weight; (2) wet a donor area with approximately 100 μL of phosphate buffer; (3) place film on a donor surface, top with 400 μL of phosphate buffer, and start timers.
The tissue is dermatomed to precise thickness. • 4. […] The media is selected to ensure sink conditions. • 5.

[2] = in PBS (pH 7.4) at 37°±1° C., n=6; cited from earlier work
[3] = type: in vitro ADME, porcine; conditions: pig, 360 min
Text: FIG. 41B depicts a comparison of individual adrenergic receptor interacters in terms of amount permeated as a function of time.
FIG. 41C depicts ex vivo permeation as a function of time of different adrenergic receptor interacters in DESF compositions. The ex-vivo permeation in this example involved the exposure of porcine buccal tissue to formulations varying with regard to permeation enhancer(s) used and API concentration. […] Amount permeated increases with eugenol content, where eugenol contents in both test formulations were lower than that used in the control.
Ex-vivo permeation involved the exposure of porcine buccal tissue to formulations varying with regard to permeation enhancer(s) used and API concentration. […] Amount permeated increased with eugenol content, where eugenol contents in both test formulations were lower than that used in the control.

[4] = modified Ussing chambers; cited from earlier work
[5] = in vivo
Procedure: The study compared various dose routes: sublingual (SL), per oral tablet (PO), subcutaneous (SC) and intravenous (IV). […] An Oral Irritation assessment was performed (SL film group): Predose (0) and 24 hr postdose by Draize scoring.

[6] = AQST-109 12 mg residence time / food / swallowed film PK study; type: in vivo, human; conditions: for Cmax / AUC(0-t): AQST-109 12 mg (N = 48 doses), Epinephrine IM Injection 0.3 mg (N = 48 doses)
Procedure: In this example, three different residence times were tested. The 4 minute residence time is shown in circle data points. The 2 minute residence time is shown in downward pointing triangle data points. The 0 minute residence time is shown in upward pointing triangle data points.
The purpose of this investigation was to continue to study the administration of the film under a variety of conditions and further characterize its pharmacokinetics, pharmacodynamics, and safety. The final two arms of the study were designed to assess the impact of (1) administering the film sublingually two minutes after consuming food—in this case, a peanut butter sandwich, and (2) swallowing the film whole immediately with 240 mL of water. The control arm used for reference was the optimized sublingual film administration with a four-minute residence time.

[7] = Pilot PK study of auto-injectors vs 0.3 mg manual IM injection; type: in vivo; conditions: human, plasma, intramuscular, 27 healthy subjects, crossover
[8] = AQ109201 safety, adverse events; type: in vivo, human
[9] = AQST-109 single and repeat dose PK vs EpiPen and 0.3 mg IM (AQ109201); type: in vivo, human; conditions: for AUC(0-t) / Cmax / Tmax: human, plasma, intramuscular, 0.3 mg
Procedure: Referring to FIG. 35, the study was a controlled study in healthy volunteers. […] However, the need and use of a second dose can be quite rare. […] Within this context, a post hoc analysis was performed.

[10] = concentration ranges explored
[11] = single dose: 12 mg, 0.3 mg, EpiPen

SMILES: C=CCc1ccc(O)c(OC)c1 [100% Eugenol]
- Permeability Coefficient [1]: 38.4 ×10⁻⁶ cm/s

SMILES: CNC[C@H](O)c1ccc(O)c(O)c1 [Epinephrine Base]
- Average Steady State Flux ([1]; conc 4.4 mg/mL, solubilized in situ): 0.512 ug/cm^2*min

SMILES: C=CCc1ccc(O)c(OC)c1 [0.3% Eugenol]
- Permeability Coefficient [1]: 4.14 ×10⁻⁶ cm/s

SMILES: CC(C)NCC(O)COc1cccc2ccccc12 (stereo not shown) [PP]
- C0 of saturated solution [2]: 588.005 ± 5.852 ng/mL

- amount permeated [3]: 50 to 100 µg
SMILES: OCc1ccccc1 [benzyl alcohol]

SMILES: Cn1c(=O)c2c(ncn2C)n(C)c1=O [caffeine]
- permeability through buccal epithelium compared with full thickness buccal tissue [4]: 1.8 fold

- amount permeated [3]: 0 to 50 µg
SMILES: Cc1ccc(C(C)(C)O)cc1 [cherry propanol, 2-(4-methylphenyl)propan-2-ol]

- % Boiavailability (DIPI AUC0-t) [5]: 128.5%
- % Boiavailability (EPI AUC0-t) [5]: 131.0%
- time until cleared from the system ([5]; iv): ≤ 2 h
- AUC(0-t) ([5]; iv, 1 mg): 0.887 ng·h/mL
- Cmax ([5]; iv, 1 mg): 11.7 ng/mL
- EPI Cmax (mean) ([5]; iv, 1 mg): 7.62 ng/mL
- DIPI AUC0-t ([5]; po, 6 mg): 0
- EPI Cmax (mean) ([5]; po, 6 mg): 0.28 ng/mL
- EPI Tmax ([5]; po, 6 mg): 120 min
- Tmax ([5]; po, 6 mg): 0 min
- AUC(0-t) ([5]; sc, 22 mg): 25.1 ng·h/mL
- Cmax ([5]; sc, 22 mg): 15 ng/mL
- EPI Cmax (mean) ([5]; sc, 22 mg): 12.5 ng/mL
- EPI Tmax ([5]; sc, 22 mg): 180 min
- Tmax ([5]; sc, 22 mg): 5 min
SMILES: CNC[C@H](O)c1ccc(OC(=O)C(C)(C)C)c(OC(=O)C(C)(C)C)c1 (racemic) [Dipi Solution, dipivefrin]

SMILES: C=CCc1ccc(O)c(OC)c1 [3% Eugenol]
- Permeability Coefficient [1]: 7.43 ×10⁻⁶ cm/s

SMILES: CNC[C@H](O)c1ccc(O)c(O)c1 [Epinephrine IM Injection, epinephrine]
- median time to reach 100 pg/mL ([6]; AQST-109 at 4-minute residence, 0.3 mg IM injection): 10 min
- Cmax ([6]; human, plasma, im, 0.3 mg, read-out: Arithmetic Mean Cmax): 0.397 ng/mL
- Cmax ([6]; human, plasma, im, 0.3 mg, read-out: Geometric Cmax): 0.351 ng/mL
- AUC(0-t) ([6]; human, plasma, im, 0.3 mg, AUC 0-20 minutes): 0.023 ng·h/mL
- AUC(0-t) ([6]; human, plasma, im, 0.3 mg, AUC 0-30 minutes): 0.0475 ng·h/mL
- Tmax ([6]; human, plasma, im, 0.3 mg, read-out: median time to maximum concentration (Tmax) (converted)): 50 min
- Cmax ([7]; read-out: geometric mean Cmax): 0.344 ng/mL
- Tmax ([7]; read-out: median Tmax (converted)): 50 min
- Cardiac disorders ([8]; repeat dose: 24 mg (N = 23), 0.6 mg (N = 23)): 1 (4.3) n (%)
- Palpitations ([8]; repeat dose: 24 mg, 0.6 mg): 1 (4.3) n (%)
- Ventricular extrasystoles ([8]; repeat dose: 24 mg, 0.6 mg): 1 (4.3) n (%)
- Cardiac disorders ([8]; single dose: 12 mg (N = 23), 0.3 mg (N = 23), EpiPen (N = 22)): 1 (4.3) n (%)
- Palpitations [8, 11]: 1 (4.3) n (%)
- Ventricular extrasystoles [8, 11]: 0 n (%)
- AUC(0-t) ([9]; AUC 0-30 min, Repeat Dose (10 min)): 0.067 ng·h/mL
- Cmax ([9]; Repeat Dose (10 min), geometric mean, read-out: Cmax): 0.755 ng/mL
- AUC(0-t) ([9]; Repeat Dose (10 min), read-out: AUC0-45 min): 0.181 ng·h/mL
- AUC(0-t) ([9]; Repeat Dose (10 min), read-out: AUC 0-t): 1.3 ng·h/mL
- Tmax ([9]; Repeat Dose (10 min), read-out: Tmax (median) (converted)): 50 min
- Tmax ([9]; Repeat Dose (10 min), read-out: Tmax Range): 30 to 70 min
- Cmax ([9]; after one dose, read-out: maximum concentration, CMax): 0.489 ng/mL
- Cmax ([9]; after two doses, second dose ten minutes after the first, read-out: maximum concentration, CMax): 0.911 ng/mL
- Tmax ([9]; single dose administration, read-out: Tmax (median) (converted)): 45 min
- time after second dose administration until impact on PK profile ([9]; repeat dosing): over 20 min

SMILES: C=CCc1ccc(O)c(OC)c1 [eugenol]
- amount permeated [3]: 50 to 275 µg

SMILES: CNC[C@H](O)c1ccc(O)c(O)c1 [Epinephrine Bitartrate]
- permeation as a function of solution pH [1]: slightly favorable
- Theoretical enhancement ([1]; 8 mg/mL): 2
- Theoretical enhancement ([1]; 16 mg/mL): 4
- Theoretical enhancement ([1]; 100 mg/mL): 25
- average amount permeated ([1]; 30 min, 16 mg/mL): 0
- average flux ([1]; 30 min, 16 mg/mL): 0 μg/cm^2 * min
- average amount permeated ([1]; 45 min, 16 mg/mL): 2.5
- average flux ([1]; 45 min, 16 mg/mL): 0.2604 μg/cm^2 * min
- average amount permeated ([1]; 60 min, 16 mg/mL): 5.5
- average flux ([1]; 60 min, 16 mg/mL): 0.3125 μg/cm^2 * min
- average amount permeated ([1]; 120 min, 16 mg/mL): 31.33
- average flux ([1]; 120 min, 16 mg/mL): 0.6727 μg/cm^2 * min
- average amount permeated ([1]; 180 min, 8 mg/0.500 mL): 72.67
- average flux ([1]; 180 min, 8 mg/mL): 1.076 μg/cm^2 * min
- average amount permeated ([1]; 240 min, 16 mg/mL): 112.2
- average flux ([1]; 240 min, 16 mg/mL): 1.029 μg/cm^2 * min
- average amount permeated ([1]; 300 min, 16 mg/mL): 160.2
- average flux ([1]; 300 min, 16 mg/mL): 1.25 μg/cm^2 * min
- Average Steady State Flux ([1]; 360 min, 4 mg/mL): 0.167 ug/cm^2*min
- Average Steady State Flux ([1]; 360 min, 8 mg/mL): 0.466 ug/cm^2*min
- average amount permeated ([1]; 360 min, 16 mg/mL): 213.3
- average flux ([1]; 360 min, 16 mg/mL): 1.385 μg/cm^2 * min
- steady state flux average ([1]; 360 min, 16 mg/mL): 1.317
- Average Steady State Flux ([1]; 360 min, 100 mg/mL): 2.942 ug/cm^2*min
- inherent pH in solution [10]: 4.5-5
